SMILES strings stand for the structures.

The record followed here is patent US20090264384A1, “INDOLE, BENZIMIDAZOLE, AND BENZOLACTAM BORONIC ACID COMPOUNDS, ANALOGS THEREOF AND METHODS OF USE THEREOF” (Nuada, Inc., priority 2004, published 2009).

In experiment [1] the test system is chronic colitis provoked by trinitrobenzene sulphonic acid (TNBS). Description: Rat model of chronic colitis provoked by TNBS over 14 days, treatment from Day 1. The experiment is classed as in vivo. From the text:
In the chronic model of colitis, assessment of the colonic inflammation is made 14 days or longer, after the intracolonic challenge with TNBS (Boughton-Smith et al, 1988a, 1988b; Wallace et al, 1989; Rachmilewitz et al, 1989; Wallace and Keenan, 1990; Ameho et al, 1987; Sans et al, 1999; Sun et al, 2001; Maric et al, 2003; Moreels et al, 2004; Gonzalez et al, 2004). This model allows treatment with experimental agents to commence following the establishment of the colonic injury, typically 24 hours after the TNBS challenge (Galvez et al, 2000, Villegas, 2003, Gonzalez et al, 2004). The model should therefore identify the ability of the experimental compounds to accelerate the diminution of the inflammatory response and to promote healing of the colonic lesions. This model thus has relevance additional to the acute model, as the clinical correlate is the therapeutic intervention in patients with existing IBD not in remission or with flare-up, to reduce the crisis. This contrasts with the acute TNBS model where the compounds are administered one or two days prior to challenge, the clinical correlate being the use of prophylactic therapy to prevent flare-up and maintain remission in IBD patients.
In this current study, the low intracolonic challenge concentration of TNBS used in the acute studies was also used for the chronic study over a 14 day period. This concentration and timing was based on the findings from pilot studies where a range of concentrations of TNBS and treatment conditions were evaluated over a 14 day period. […].
The methods and protocol used were substantially similar to those in Example 39-40, with some differences described below.
TNBS Challenge. Male Wistar rats (average body weight, 210 g) were randomised into groups before commencement of the study. In all groups, including the non-challenged and non-treated absolute control group, food was withdrawn for 12 h before TNBS administration (i.e. overnight on Day −1), but the rats were allowed free access to drinking water.
On the morning of the day of challenge (Day 0, between 9.00 and 1 1.00 a.m.), the rats were transiently anaesthetised with ether and the TNBS solution (10 mg in 0.25 ml of 50% ethanol) was instilled approximately 6-8 cm into the colon using a soft plastic catheter inserted in the rat rectum. The rats were allowed to recover with free access to food and drinking water. At the end of the experiment, on the morning of Day 14, between 9.00 and 11.00), the colon was dissected, and the distal 8 cm photographed and immediately processed or stored appropriately for subsequent analyses.
The following primary parameters were measured in the study: macroscopic scoring of distal 8 cm of colon; myeloperoxidase levels in segments of distal 8 cm of colon; TNF-α levels in segments of distal 8 cm of colon.
In addition, the weight of the standard colonic segment was assessed as an indirect and non-specific marker of oedema. The body weight of the animals was also determined each evening of the study, starting on Day-1, and also on the morning of Day 14. The data is shown graphically as the % change from the weight on Day-1, prior to challenge.
Treatments. The TNBS challenged groups for study were: (a) Vehicle control 0.5% carboxy methyl cellulose (CMC) p.o., twice daily from Day; (b) CCI-7506 25 mg/kg, p.o., twice daily from Day 1 (50 mg/kg/day total); (c) CCI-7506 50 mg/kg, p.o., twice daily from Day 1 (100 mg/kg/day total); (d) CCI-7507 12.5 mg/kg, p.o., twice daily from Day 1 (25 mg/kg/day total); (e) CCI-7507 25 mg/kg, p.o., twice daily from Day 1(50 mg/kg/day total); […]; (g) Infliximab 3 mg/kg, single slow i.v. injection, on Day 1 and Day7.
The experimental compounds that were administered orally were given twice a day from Day 1, i.e. 24 h following TNBS administration, for the remainder of the 14 day experimental period. Infliximab was administered by slow i.v. injection of Day 1 and on Day 7. […]

Experiment [2] concerns the target T1, NK3(h) (Homo sapiens, UniProt P29371).
T1 construct: expressed in transfected cells; host or cells: CHO cells
The experiment can be described thus: NK3(h) binding assay. The note with it: read-out: % Inhibition of Control Specific Binding.

Experiment [3] deals with T2, MAO-B(h) (Homo sapiens, UniProt P27338).
T2 construct: human platelets; from tissue; host or cells: human platelets
The experiment is classed as biochemical. The note with it: 1.0E−05 M.

Experiment [4] concerns the target N (neuronal) (α-BGTX-insensitive) (Rattus norvegicus, UniProt P09483+P12390). The experiment can be described thus: N (neuronal) (α-BGTX-insensitive) binding assay. The note with it: 1.0E−05 M; read-out: % Inhibition of Control Specific Binding.
For experiment [5], the system named is SK^+Ca channel. Description: SK^+Ca channel binding assay. Also noted: species or system rat. The settings on record: 1.0E−05 M.
For experiment [6], the target named is Phosphodiesterase 3(h) (Homo sapiens, UniProt Q14432). The experiment can be described thus: Phosphodiesterase 3(h) enzyme assay. The experiment is classed as biochemical. The note with it: 1.0E−05 M.
In experiment [7] the target is T3, Tyrosine hydroxylase (Rattus norvegicus, UniProt P04177).
T3 construct: rat striatum; from tissue; host or cells: rat striatum
Description: Tyrosine hydroxylase enzyme assay. The experiment is classed as biochemical. The settings on record: 1.0E−05 M.

Experiment [8] addresses T4, A1(h) (Homo sapiens, UniProt P30542).
T4 construct: expressed in transfected cells; host or cells: CHO cells
The experiment can be described thus: A1(h) binding assay. The note with it: 1.0E−05 M; read-out: % Inhibition of Control Specific Binding.

[9] abbreviates: 50 mg/kg/day p.o. from Day 1, Day 14, vs CMC group.

T1 sequence (P29371 whole entry): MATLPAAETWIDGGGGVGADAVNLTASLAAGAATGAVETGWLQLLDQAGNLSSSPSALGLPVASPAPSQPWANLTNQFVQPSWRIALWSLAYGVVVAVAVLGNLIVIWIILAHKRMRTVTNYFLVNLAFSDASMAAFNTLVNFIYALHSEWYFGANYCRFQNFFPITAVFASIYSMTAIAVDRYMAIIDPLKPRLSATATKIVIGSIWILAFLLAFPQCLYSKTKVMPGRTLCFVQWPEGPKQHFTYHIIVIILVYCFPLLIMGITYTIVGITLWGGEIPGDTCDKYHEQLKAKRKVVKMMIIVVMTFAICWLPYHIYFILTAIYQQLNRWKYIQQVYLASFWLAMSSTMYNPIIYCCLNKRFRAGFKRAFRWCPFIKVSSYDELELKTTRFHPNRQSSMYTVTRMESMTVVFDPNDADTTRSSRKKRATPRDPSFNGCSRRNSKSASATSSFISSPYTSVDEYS
N (neuronal) (α-BGTX-insensitive), sequence (P09483 31-630): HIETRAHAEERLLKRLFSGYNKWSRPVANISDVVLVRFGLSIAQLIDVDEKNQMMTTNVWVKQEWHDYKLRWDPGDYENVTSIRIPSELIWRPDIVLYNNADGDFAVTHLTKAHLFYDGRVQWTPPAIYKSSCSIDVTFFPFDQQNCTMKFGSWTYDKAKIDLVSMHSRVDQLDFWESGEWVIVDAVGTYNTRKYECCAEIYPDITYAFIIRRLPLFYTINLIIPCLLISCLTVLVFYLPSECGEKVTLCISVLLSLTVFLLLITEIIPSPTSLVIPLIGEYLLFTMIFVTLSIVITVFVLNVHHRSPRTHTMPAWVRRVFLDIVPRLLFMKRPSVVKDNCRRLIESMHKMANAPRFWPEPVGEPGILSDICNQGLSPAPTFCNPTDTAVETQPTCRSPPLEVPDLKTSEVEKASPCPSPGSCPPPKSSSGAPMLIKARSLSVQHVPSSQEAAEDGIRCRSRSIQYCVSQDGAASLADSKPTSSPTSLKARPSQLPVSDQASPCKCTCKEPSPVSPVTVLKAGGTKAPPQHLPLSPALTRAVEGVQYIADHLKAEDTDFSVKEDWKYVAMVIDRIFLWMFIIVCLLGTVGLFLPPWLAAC
N (neuronal) (α-BGTX-insensitive), sequence (P12390 25-500): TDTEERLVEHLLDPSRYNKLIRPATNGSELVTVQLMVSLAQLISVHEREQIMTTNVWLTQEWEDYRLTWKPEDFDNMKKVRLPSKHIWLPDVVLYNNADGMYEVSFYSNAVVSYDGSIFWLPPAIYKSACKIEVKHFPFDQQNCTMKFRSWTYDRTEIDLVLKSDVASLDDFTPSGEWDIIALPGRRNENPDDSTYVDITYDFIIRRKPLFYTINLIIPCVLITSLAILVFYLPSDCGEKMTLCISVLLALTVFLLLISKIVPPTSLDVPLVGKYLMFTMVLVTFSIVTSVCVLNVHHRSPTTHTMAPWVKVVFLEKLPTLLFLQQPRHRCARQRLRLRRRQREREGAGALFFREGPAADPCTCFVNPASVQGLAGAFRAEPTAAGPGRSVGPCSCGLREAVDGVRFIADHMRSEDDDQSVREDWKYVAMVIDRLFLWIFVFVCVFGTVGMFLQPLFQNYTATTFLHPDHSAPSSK
T2 sequence (P27338 whole entry): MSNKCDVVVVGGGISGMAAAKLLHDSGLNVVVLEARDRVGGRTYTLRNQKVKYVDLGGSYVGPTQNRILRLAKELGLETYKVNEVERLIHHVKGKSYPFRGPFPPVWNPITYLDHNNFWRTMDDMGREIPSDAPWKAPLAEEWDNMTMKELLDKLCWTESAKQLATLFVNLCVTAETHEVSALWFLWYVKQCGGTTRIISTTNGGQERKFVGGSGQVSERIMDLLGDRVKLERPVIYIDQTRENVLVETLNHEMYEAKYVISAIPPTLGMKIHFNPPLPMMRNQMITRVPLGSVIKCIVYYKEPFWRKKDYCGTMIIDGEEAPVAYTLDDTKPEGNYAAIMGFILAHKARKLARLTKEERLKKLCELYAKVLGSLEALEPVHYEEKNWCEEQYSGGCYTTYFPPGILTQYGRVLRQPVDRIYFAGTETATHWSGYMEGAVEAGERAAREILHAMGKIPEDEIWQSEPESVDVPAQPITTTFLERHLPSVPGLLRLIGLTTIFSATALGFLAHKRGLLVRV
T4 sequence (P30542 whole entry): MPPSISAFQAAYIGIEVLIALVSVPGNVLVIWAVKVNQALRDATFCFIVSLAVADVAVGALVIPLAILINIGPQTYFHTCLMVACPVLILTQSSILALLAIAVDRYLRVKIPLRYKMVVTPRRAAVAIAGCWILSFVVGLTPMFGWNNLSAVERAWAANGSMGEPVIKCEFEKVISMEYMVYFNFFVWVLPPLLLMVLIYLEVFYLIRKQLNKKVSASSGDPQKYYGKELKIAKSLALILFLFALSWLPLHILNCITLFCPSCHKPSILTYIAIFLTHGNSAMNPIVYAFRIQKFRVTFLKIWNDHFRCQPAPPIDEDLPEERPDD
T3 sequence (P04177 whole entry): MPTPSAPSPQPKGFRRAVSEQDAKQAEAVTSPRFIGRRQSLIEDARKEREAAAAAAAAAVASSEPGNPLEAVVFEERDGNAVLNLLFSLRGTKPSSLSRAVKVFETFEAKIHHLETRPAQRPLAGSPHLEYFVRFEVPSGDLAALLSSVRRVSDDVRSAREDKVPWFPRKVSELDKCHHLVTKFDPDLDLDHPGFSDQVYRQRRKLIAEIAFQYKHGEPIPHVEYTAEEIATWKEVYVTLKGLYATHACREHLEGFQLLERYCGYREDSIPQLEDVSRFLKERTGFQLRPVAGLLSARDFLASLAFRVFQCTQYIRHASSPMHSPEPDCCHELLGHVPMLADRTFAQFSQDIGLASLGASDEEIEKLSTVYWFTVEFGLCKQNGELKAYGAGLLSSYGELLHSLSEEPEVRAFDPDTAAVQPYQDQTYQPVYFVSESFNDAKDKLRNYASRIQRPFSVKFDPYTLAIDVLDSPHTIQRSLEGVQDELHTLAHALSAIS
Phosphodiesterase 3(h), sequence (Q14432 674-1093 limits assumed): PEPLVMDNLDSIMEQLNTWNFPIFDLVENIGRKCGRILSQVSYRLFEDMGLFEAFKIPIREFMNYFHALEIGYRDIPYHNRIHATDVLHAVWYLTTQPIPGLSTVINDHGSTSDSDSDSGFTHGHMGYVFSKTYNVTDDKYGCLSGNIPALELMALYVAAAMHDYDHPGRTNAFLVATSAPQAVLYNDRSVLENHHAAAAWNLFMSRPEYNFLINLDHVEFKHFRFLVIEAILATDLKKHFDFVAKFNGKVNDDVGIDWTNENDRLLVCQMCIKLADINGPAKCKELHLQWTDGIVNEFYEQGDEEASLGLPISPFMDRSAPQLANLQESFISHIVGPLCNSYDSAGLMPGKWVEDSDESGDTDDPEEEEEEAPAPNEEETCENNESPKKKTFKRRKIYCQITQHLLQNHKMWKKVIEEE

On to `O=C(O)c1cc(/N=N/c2ccc(S(=O)(=O)Nc3ccccn3)cc2)ccc1O` [sulfasalazine, reference compound], for which the “macroscopic Damage Score” value in experiment [1] (50 mg/kg/day p.o. from Day 1, Day 14) is “reduced the damage score”. Besides, in experiment [1] (setting [9]), the “reduction in colon weight” value is recorded as “significant (P<0.05) reduction in colon weight”, the “reduction in colonic MPO activity” value was “significantly (P<0.001) reduced the elevated colonic levels of MPO”, the “reduction in colonic TNF-α levels” value was “significantly reduced the elevated colonic levels of TNF-α” and the “reduction in colonic lesion area (% of the total area measured)” value is reported as “significantly (P<0.001) reduced the extent of macroscopic injury”. In addition, the “attenuation of TNBS-induced fall in body weight (% change of body weight at Day −1)” value in experiment [1] (50 mg/kg/day p.o. in divided doses from Day 1, over 14 days, vs CMC group) is “reached statistical significance compared with the CMC challenged group on at Day 2, 3, 6 and 7”.

Consider `N#Cc1ccc2c(ccn2CCCCCB(O)O)c1` [Example 20, 5-(5-cyano-1H-indol-1-yl)pentylboronic acid], for which the inhibition – broadly, how much of the control response was suppressed – at 10 µM in experiment [2] amounted to 3%; in experiment [4] it was 12%; in experiment [8], 7%. In addition, the “% Inhibition of Control Values” is given as −8% in experiment [3], 95% in experiment [6] and 4% in experiment [7]. Further, the “% Inhibition of Control Specific Binding” value in experiment [5] is on record as −15%.
